Data from the SangsterLogP compilation.

logP	Structure (SMILES)
2.48	OC/C=C/C#CC#Cc1ccccc1
3.09	O=C/C=C/C#CC#Cc1ccccc1
2.09	CC=CC#CC=C1C=CC(=O)O1
5.15	C=CC#Cc1ccc(-c2cccs2)s1
2.42	CC#CC#CC#C/C=C\C(=O)OC
2.45	C/C=C/C#CC#C/C=C/C(=O)OC
3.91	C/C=C/C#CC#CC#C/C=C/C(Cl)CO (stereo unspecified)
4.6	CC#CC#Cc1ccc(C#CC(Cl)COC(C)=O)s1 (stereo unspecified)
4.91	CC#CC#CC#Cc1ccccc1
4.76	C/C=C/C#CC#Cc1ccccc1

Structure (SMILES)	logP
c1csc(-c2ccc(-c3cccs3)s2)c1	5.57
